Measurements: US20140329868A1, “METHODS FOR TREATING HYPERTENSION” (TAKEDA PHARMACEUTICALS U.S.A., INC., priority 2005, published 2014)

Experiments:
[1] = tested on: subjects having a systolic BP≧160 mmHg or diastolic BP≧95 mmHg (elevated blood pressure); assay: Example 1: blood pressure change in subjects with elevated blood pressure, none taking antihypertensive agents at baseline (two double-blind studies); format: in vivo, human
Protocol: A total of 103 subjects (9 in the placebo group, 26 in each the 2-[3-cyano-4-(2-methylpropoxy)phenyl]-4-methylthiazole-5-carboxylic acid (hereinafter referred to as “febuxostat”) 80 mg and 120 mg once daily (hereinafter referred to as “QD”) groups, 10 in the febuxostat 240 mg QD group and 32 in the 4-hydroxy-3,4-pyrazolopyrimidine (hereinafter referred to as “allopurinol”) 300/100 mg QD group), having a systolic BP≧160 mmHg or diastolic BP≧95 mmHg, and thus considered to have “elevated blood pressure”, were examined. Allopurinol […] xanthine oxidoreductase inhibitor.
None of the above subjects were taking any antihypertensive agents at the baseline (start) of the study. These […] subjects were part of two (2) double-blind (hereinafter referred to as “DB”) studies. One study was of 28 weeks in duration. During this time, the subjects received 80 mg, 120 mg or 240 mg QD of febuxostat, placebo or allopurinol 300 or 100 mg QD, depending on the subject's renal function. The second study was 52 weeks in duration. During this time, the subjects received 80 mg or 120 mg QD of febuxostat or allopurinol 300 mg QD.

[2] = Example 4: body weight, food and water intake, side effects in normal and OA-dosed rats; format: in vivo, Sprague-Dawley rats
Protocol: Materials and Methods. To produce hyperuricemia, rats received OA (Sigma, St Louis Mo., USA) 750 mg/kg body weight daily by gastric gavage. To investigate the treatment effect of febuxostat (also referred to herein as “Fx”), the drug was administered in drinking water at 50 mg/L (approximately 5-6 mg/kg/day) four weeks after OA dosing while the respective controls received 5.84 mg/L of NaCl in drinking water (to maintain a salt concentration equivalent to the Febuxostat-containing water). The following four groups (n=10-11) were included in the study: Group 1, normal control rats which received no treatment for eight weeks; Group 2, Normal+Febuxostat rats which received no treatment for four weeks and then were treated with febuxostat for four weeks from Weeks 5 to 8; Group 3, OA rats which received OA for eight weeks; and Group 4, OA+Febuxostat rats which received OA for eight weeks and febuxostat for four weeks from Weeks 5 to 8. Body weight, food and water intakes were measured daily. Systolic blood pressure, obtained in conscious rats by a tail cuff sphygmomanometer, and plasma uric acid were measured in all animals at baseline and at the end of four and eight weeks. A renal micropuncture procedure along with systemic arterial blood pressure monitoring under pentobarbital anesthesia were performed at the end of eight weeks followed by morphologic evaluation of the renal preglomerular microvasculature.
Evaluation. Food and water intake were determined daily. Systolic blood pressure (hereinafter “SBP”) was measured in conscious animals by a tail cuff sphygmomanometer using an automated system (XBP-100, Kent Scientific Co, USA). All animals were preconditioned for blood pressure measurements one week before each experiment. Plasma UA, insulin and triglycerides were quantified using commercial kits (Diagnostic Chemicals Ltd, USA; Crystalchem, USA and Spinreact, Spain, respectively).
Statistical Analysis. Values were expressed as mean±standard error of the mean (hereinafter “SEM”). In the study, values from the respective four treatment groups were analyzed by one-way analysis of variance (hereinafter “ANOVA”). When the ANOVA p value was <0.05, the following comparisons were made using Bonferroni multiple comparison test: Normal Control vs. Normal+Fx, Normal Control vs. OA, Normal Control vs. OA+Fx and OA vs. OA+Fx. Pair wise comparisons were performed using contrast within the framework of the statistical model.

[3] = tested on: oxonic acid (OA)-induced hyperuricemic model in Sprague-Dawley rats; assay: Example 4: renal arteriolar morphology in normal and OA-dosed rats; format: in vivo
Protocol: Materials and Methods. To produce hyperuricemia, rats received OA (Sigma, St Louis Mo., USA) 750 mg/kg body weight daily by gastric gavage. To investigate the treatment effect of febuxostat (also referred to herein as “Fx”), the drug was administered in drinking water at 50 mg/L (approximately 5-6 mg/kg/day) four weeks after OA dosing while the respective controls received 5.84 mg/L of NaCl in drinking water (to maintain a salt concentration equivalent to the Febuxostat-containing water). The following four groups (n=10-11) were included in the study: Group 1, normal control rats which received no treatment for eight weeks; Group 2, Normal+Febuxostat rats which received no treatment for four weeks and then were treated with febuxostat for four weeks from Weeks 5 to 8; Group 3, OA rats which received OA for eight weeks; and Group 4, OA+Febuxostat rats which received OA for eight weeks and febuxostat for four weeks from Weeks 5 to 8. Body weight, food and water intakes were measured daily. Systolic blood pressure, obtained in conscious rats by a tail cuff sphygmomanometer, and plasma uric acid were measured in all animals at baseline and at the end of four and eight weeks. […]
Renal Histology and Quantification of Morphology. […] Arteriolar morphology was assessed by indirect peroxidase immunostaining for alpha smooth-muscle actin (DAKO Corp, Carpinteria, Calif., USA). […]
For each arteriole, the outline of the vessel and its internal lumen (excluding the endothelium) were generated using computer analysis to calculate the total medial area (outline−inline) in 10 arterioles per biopsy. The media/lumen ratio was calculated by the outline/inline relationship (See, Sanchez-Lozada L G, et al., Am J Physiol Renal Physiol 283:F1105-F1110, (2002) and Sanchez-Lozada L G, et al., Kidney Int 67:237-247 (2005)). Quantifications were performed blinded.
(§1) Statistical Analysis. Values were expressed as mean±standard error of the mean (hereinafter “SEM”). In the study, values from the respective four treatment groups were analyzed by one-way analysis of variance (hereinafter “ANOVA”). […]

[4] = tested on: oxonic acid (OA)-induced hyperuricemic model in Sprague-Dawley rats; assay: Example 4: systolic blood pressure by tail cuff in conscious normal and OA-dosed rats; format: in vivo; conditions: FIG. 2
Protocol: Materials and Methods. To produce hyperuricemia, rats received OA (Sigma, St Louis Mo., USA) 750 mg/kg body weight daily by gastric gavage. To investigate the treatment effect of febuxostat (also referred to herein as “Fx”), the drug was administered in drinking water at 50 mg/L (approximately 5-6 mg/kg/day) four weeks after OA dosing while the respective controls received 5.84 mg/L of NaCl in drinking water (to maintain a salt concentration equivalent to the Febuxostat-containing water). […] Body weight, food and water intakes were measured daily. Systolic blood pressure, obtained in conscious rats by a tail cuff sphygmomanometer, and plasma uric acid were measured in all animals at baseline and at the end of four and eight weeks. […]
Evaluation. Food and water intake were determined daily. Systolic blood pressure (hereinafter “SBP”) was measured in conscious animals by a tail cuff sphygmomanometer using an automated system (XBP-100, Kent Scientific Co, USA). […] Plasma UA, insulin and triglycerides were quantified using commercial kits (Diagnostic Chemicals Ltd, USA; Crystalchem, USA and Spinreact, Spain, respectively).
as §1

[5] = 80 mg QD, after 4 weeks of treatment
[6] = 80 mg QD, after 28 weeks of treatment
[7] = 80 mg QD, after 52 weeks of treatment
[8] = 120 mg QD, after 4 weeks of treatment
[9] = 120 mg QD, after 28 weeks of treatment
[10] = 120 mg QD, after 52 weeks of treatment
[11] = 240 mg QD, after 4 weeks of treatment
[12] = 240 mg QD, after 28 weeks of treatment
[13] = Normal + Fx rats, End of Week 4 (before Fx)
[14] = Normal + Fx rats, End of Week 8
[15] = Normal + Fx rats, Week 1 (before Fx)
[16] = Normal + Fx rats, Week 4 (before Fx)
[17] = OA + Fx rats, End of Week 4 (before Fx)
[18] = OA + Fx rats, Week 1 (before Fx)
[19] = OA + Fx rats, Week 4 (before Fx)

Cc1nc(-c2ccc(OCC(C)C)c(C#N)c2)sc1C(=O)O [febuxostat, 2-[3-cyano-4-(2-methylpropoxy)phenyl]-4-methylthiazole-5-carboxylic acid]
mean change from baseline for diastolic BP [1, 5]: −3.7 mmHg | mean change from baseline for mean arterial BP [1, 5]: −5.2 mmHg | mean change from baseline for systolic BP [1, 5]: −8.2 mmHg | mean change from baseline for diastolic BP [1, 6]: −10.2 mmHg | mean change from baseline for mean arterial BP [1, 6]: −11.1 mmHg | mean change from baseline for systolic BP [1, 6]: −13.0 mmHg | mean change from baseline for diastolic BP [1, 7]: −12.3 mmHg | mean change from baseline for mean arterial BP [1, 7]: −12.7 mmHg | mean change from baseline for systolic BP [1, 7]: −13.4 mmHg | mean change from baseline for diastolic BP [1, 8]: −8.4 mmHg | mean change from baseline for mean arterial BP [1, 8]: −9.3 mmHg | mean change from baseline for systolic BP [1, 8]: −11.0 mmHg | mean change from baseline for diastolic BP [1, 9]: −6.4 mmHg | mean change from baseline for mean arterial BP [1, 9]: −9.0 mmHg | mean change from baseline for systolic BP [1, 9]: −14.2 mmHg | mean change from baseline for diastolic BP [1, 10]: −10.0 mmHg | mean change from baseline for mean arterial BP [1, 10]: −15.2 mmHg | mean change from baseline for systolic BP [1, 10]: −25.8 mmHg | mean change from baseline for diastolic BP [1, 11]: −8.9 mmHg | mean change from baseline for mean arterial BP [1, 11]: −9.3 mmHg | mean change from baseline for systolic BP [1, 11]: −10.0 mmHg | mean change from baseline for diastolic BP [1, 12]: −5.0 mmHg | mean change from baseline for mean arterial BP [1, 12]: −6.0 mmHg | mean change from baseline for systolic BP [1, 12]: −8.0 mmHg | BW ([2]; Normal + Fx rats, Baseline (Fx 50 mg/L in drinking water Weeks 5 to 8), mean ± SEM): 319.9 ± 3.0 gr | % BW gain from baseline [2, 13]: 11.9 ± 1.8% | BW [2, 13]: 359.3 ± 7.2 gr | % BW gain from Week 4 [2, 14]: 6.6 ± 0.8 % | % BW gain from baseline [2, 14]: 18.7 ± 1.8% | BW [2, 14]: 377.7 ± 7.5 gr | Daily Food intake [2, 15]: 18.3 ± 0.6 gr | Daily Water intake [2, 15]: 34.5 ± 2.4 mL | Daily Food intake [2, 16]: 16.0 ± 0.7 gr | Daily Water intake [2, 16]: 32.3 ± 1.4 mL | Daily Food intake ([2]; Normal + Fx rats, Week 8): 18.0 ± 0.4 gr | Daily Water intake ([2]; Normal + Fx rats, Week 8): 39.7 ± 1.7 mL | BW ([2]; OA + Fx rats, Baseline (Fx 50 mg/L in drinking water Weeks 5 to 8), mean ± SEM): 323.6 ± 3.2 gr | % BW gain from baseline [2, 17]: 6.7 ± 1.7% | BW [2, 17]: 345.3 ± 5.7 gr | % BW gain from Week 4 ([2]; OA + Fx rats, End of Week 8): 5.2 ± 0.7 % | % BW gain from baseline ([2]; OA + Fx rats, End of Week 8): 12.3 ± 1.9% | BW ([2]; OA + Fx rats, End of Week 8): 363.2 ± 5.7 gr | Daily Food intake [2, 18]: 15.1 ± 0.7 gr | Daily Water intake [2, 18]: 36.6 ± 2.2 mL | Daily Food intake [2, 19]: 17.4 ± 0.7 gr | Daily Water intake [2, 19]: 33.8 ± 2.4 mL | Daily Food intake ([2]; OA + Fx rats, Week 8): 18.6 ± 0.4 gr | Daily Water intake ([2]; OA + Fx rats, Week 8): 42.6 ± 2.3 mL | behaviour and side effects ([2]; all rats, eight-week study): no side effects were observed | thickening of the afferent arteriole (medial area), effect in words ([3]; OA-treated rats, FIG. 4): able to alleviate this thickening | arteriolar media-lumen ratio (effect in words) ([3]; OA-treated rats, FIG. 5): significantly reduced | arteriolar morphology (effect in words) ([3]; normal rats): no effect on arteriolar morphology | systolic blood pressure by tail cuff (effect in words) ([4]; OA-dosed conscious rats): significant but partial decrease in systolic BP | systolic blood pressure by tail cuff (effect in words) ([4]; normal conscious rats): did not alter blood pressure in normal rats
